Laboratory results as given in patent publication US20230071840A1, “HETEROCYCLIC GLP-1 AGONISTS” (Gasherbrum Bio, Inc., priority 2020, published 2023).

These compounds were tested against GLP-1 Receptor (Homo sapiens, UniProt P43220) (assay: GLP-1R agonist cAMP stimulation assay (HEK293/GLP1R/CRE-LUC cells, cAMP dynamic 2 kit)). Details: HEK293/CRE-Luc cell line stably expressing the GLP-1 Receptor; 30 min incubation at 37° C.; read-out: GLP1R cAMP Stimulation DR: EC50.
Type: cell-based
Method: Activation of GLP-1 receptor is known to stimulate cyclic AMP (cAMP) production in cells which indicates primary coupling to the Gas subunit of the G protein heterotrimeric complex.
To optimize functional activity directed toward Gas coupling, a HEK293/CRE-Luc cell line developed by HDB stably expressing the GLP-1 Receptor was used. […] Seal the plate and incubate at 37° C. with 5% CO2 for 30 min.
After incubation the cAMP assay signal was generated using cAMP dynamic 2 Kit (Cisbio). 5 μL cAMP-d2 working solution was added to each well, followed with 5 μL Anti-cAMP antibody-cryptate working solution added to each well using ThermoFisher Multidrop Combi. Incubate at room temperature for 1 hour protected from light.
% Activity=[…]×(mean RLU of test sample−mean RLU of vehicle control)/(mean RLU of MAX control−mean RLU of vehicle control))

GLP-1 Receptor, sequence (P43220 24-463, species assumed): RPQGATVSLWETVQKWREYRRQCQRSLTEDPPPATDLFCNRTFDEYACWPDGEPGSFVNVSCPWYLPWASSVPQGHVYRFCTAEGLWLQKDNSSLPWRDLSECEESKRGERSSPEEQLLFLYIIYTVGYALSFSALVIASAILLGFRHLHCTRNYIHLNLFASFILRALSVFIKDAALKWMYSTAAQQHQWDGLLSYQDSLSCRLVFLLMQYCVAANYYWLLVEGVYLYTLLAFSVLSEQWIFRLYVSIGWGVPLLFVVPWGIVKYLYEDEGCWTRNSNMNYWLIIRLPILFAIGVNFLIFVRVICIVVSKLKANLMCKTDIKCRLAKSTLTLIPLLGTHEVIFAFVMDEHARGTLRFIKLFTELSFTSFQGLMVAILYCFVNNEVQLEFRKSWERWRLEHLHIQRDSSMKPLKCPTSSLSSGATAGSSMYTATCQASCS

Row | Compound | EC50 [nM]
1 | O=C(O)c1ccc2nc(C[C@H]3CC[C@H](Oc4ccnc(Cc5ccc(Cl)cc5F)n4)CC3)n(C[C@@H]3CCO3)c2n1 [Compound 175b, 3-{[(2S)-oxetan-2-yl]methyl}-2-{[trans-4-({2-[(4-chloro-2-fluorophenyl)methyl]pyrimidin-4-yl}oxy)cyclohexyl]methyl}-3H-imidazo[4,5-b]pyridine-5-carboxylic acid] | 0.063
2 | O=C(O)c1ccc2nc(CN3CCC(Oc4cccc(Cc5ccc(C(F)(F)F)cc5)n4)CC3)n(C[C@@H]3CCO3)c2n1 [Compound 145a, 3-{[(2S)-oxetan-2-yl]methyl}-2-({4-[(6-{[4-(trifluoromethyl)phenyl]methyl}pyridin-2-yl)oxy]piperidin-1-yl}methyl)-3H-imidazo[4,5-b]pyridine-5-carboxylic acid] | 3.4
3 | O=C(O)c1ccc2nc(CN3CCC(Oc4cc(C(F)(F)F)cc(Cc5ccc(Cl)cc5)n4)CC3)n(C[C@@H]3CCO3)c2n1 [Compound 156a, 2-{[4-({6-[(4-chlorophenyl)methyl]-4-(trifluoromethyl)pyridin-2-yl}oxy)piperidin-1-yl]methyl}-3-{[(2S)-oxetan-2-yl]methyl}-3H-imidazo[4,5-b]pyridine-5-carboxylic acid] | 40
4 | CC(=O)Nc1ccc2nc(CN3CCC(Oc4cccc(Cc5ccc(Cl)cc5F)n4)CC3)n(C[C@@H]3CCO3)c2c1 [Compound 134a, N-(2-{[4-({6-[(4-chloro-2-fluorophenyl)methyl]pyridin-2-yl}oxy)piperidin-1-yl]methyl}-1-{[(2S)-oxetan-2-yl]methyl}-1H-1,3-benzodiazol-6-yl)acetamide] | 58
5 | O=C(O)c1ccc2nc(CN3CC4CC(Oc5ccnc(Cc6ccc(Cl)cc6)n5)CC4C3)n(C[C@@H]3CCO3)c2n1 (stereo partly drawn) [Compound 201a, 2-{[5-({2-[(4-chlorophenyl)methyl]pyrimidin-4-yl}oxy)-octahydrocyclopenta[c]pyrrol-2-yl]methyl}-3-{[(2S)-oxetan-2-yl]methyl}-3H-imidazo[4,5-b]pyridine-5-carboxylic acid] | 360
6 | O=C(O)c1ccc2nc(CN3CCC(Oc4nn(Cc5ccc(Cl)cc5F)cc4Cl)CC3)n(C[C@@H]3CCO3)c2n1 [Compound 183a, 2-{[4-({4-chloro-1-[(4-chloro-2-fluorophenyl)methyl]-1H-pyrazol-3-yl}oxy)piperidin-1-yl]methyl}-3-{[(2S)-oxetan-2-yl]methyl}-3H-imidazo[4,5-b]pyridine-5-carboxylic acid] | 0.85
7 | O=C(O)c1ccc2nc(CN3CCC(Oc4cc(Cc5ccc(Cl)cc5F)ccc4F)CC3)n(C[C@@H]3CCO3)c2n1 [Compound 114a, 2-[(4-{5-[(4-chloro-2-fluorophenyl)methyl]-2-fluorophenoxy}piperidin-1-yl)methyl]-3-{[(2S)-oxetan-2-yl]methyl}-3H-imidazo[4,5-b]pyridine-5-carboxylic acid] | 1.7
8 | Cn1c(C[C@H]2CC[C@H](Oc3ccnc(Cc4ccc(Cl)cc4)n3)CC2)nc2ccc(C(=O)O)nc21 [Compound 180a, 3-methyl-2-{[trans-4-({2-[(4-chlorophenyl)methyl]pyrimidin-4-yl}oxy)cyclohexyl]methyl}-3H-imidazo[4,5-b]pyridine-5-carboxylic acid] | 2.3
9 | O=C(O)c1ccc2nc(CN3CCC(Oc4ccnc(Cc5ccc(Cl)cc5)c4)CC3)n(C[C@@H]3CCO3)c2n1 [Compound 159a, 2-{[4-({2-[(4-chlorophenyl)methyl]pyridin-4-yl}oxy)piperidin-1-yl]methyl}-3-{[(2S)-oxetan-2-yl]methyl}-3H-imidazo[4,5-b]pyridine-5-carboxylic acid] | 2.3
10 | O=C(O)c1ccc2nc(CN3CCC(Oc4ccnc(Cc5ccc(Cl)cc5F)n4)C(F)(F)C3)n(C[C@@H]3CCO3)c2n1 (stereo partly drawn) [Compound 168a, 2-{[4-({2-[(4-chloro-2-fluorophenyl)methyl]pyrimidin-4-yl}oxy)-3,3-difluoropiperidin-1-yl]methyl}-3-{[(2S)-oxetan-2-yl]methyl}-3H-imidazo[4,5-b]pyridine-5-carboxylic acid] | 1.2
11 | Cc1cn(Cc2ccc(Cl)cc2F)nc1OC1CCN(Cc2nc3ccc(C(=O)O)nc3n2C[C@@H]2CCO2)CC1 [Compound 133a, 2-{[4-({1-[(4-chloro-2-fluorophenyl)methyl]-4-methyl-1H-pyrazol-3-yl}oxy)piperidin-1-yl]methyl}-3-{[(2S)-oxetan-2-yl]methyl}-3H-imidazo[4,5-b]pyridine-5-carboxylic acid] | 2.4
12 | O=C(O)c1ccc2nc(CN3CCC(Oc4cccc(C(F)(F)c5ccc(Cl)cc5F)n4)CC3)n(C[C@@H]3CCO3)c2n1 [Compound 129a, 2-{[4-({6-[(4-chloro-2-fluorophenyl)difluoromethyl]pyridin-2-yl}oxy)piperidin-1-yl]methyl}-3-{[(2S)-oxetan-2-yl]methyl}-3H-imidazo[4,5-b]pyridine-5-carboxylic acid] | 0.91
13 | COCCn1c(C[C@H]2CC[C@H](Oc3ccnc(Cc4ccc(Cl)cc4)n3)CC2)nc2ccc(C(=O)O)nc21 [Compound 179a, 3-(2-methoxyethyl)-2-{[trans-4-({2-[(4-chlorophenyl)methyl]pyrimidin-4-yl}oxy)cyclohexyl]methyl}-3H-imidazo[4,5-b]pyridine-5-carboxylic acid] | 2.8
14 | O=C(O)c1ccc2nc(CN3CCC(Oc4cccc(CN5Cc6ccccc6C5=O)n4)CC3)n(C[C@@H]3CCO3)c2n1 [Compound 148a, 3-{[(2S)-oxetan-2-yl]methyl}-2-{[4-({6-[(1-oxo-2,3-dihydro-1H-isoindol-2-yl)methyl]pyridin-2-yl}oxy)piperidin-1-yl]methyl}-3H-imidazo[4,5-b]pyridine-5-carboxylic acid] | 4.4
15 | O=C(O)c1ccc2nc(CN3CCC(Oc4ccc(F)c(Cc5ccc(Cl)cc5F)n4)CC3)n(C[C@@H]3CCO3)c2n1 [Compound 150a, (S)-2-((4-((6-(4-chloro-2-fluorobenzyl)-5-fluoropyridin-2-yl)oxy)piperidin-1-yl)methyl)-3-(oxetan-2-ylmethyl)-3H-imidazo[4,5-b]pyridine-5-carboxylic acid] | 68
16 | O=C(O)c1cnc2nc(CN3CCC(Oc4ccnc(Cc5ccc(Cl)cc5F)n4)CC3)n(C[C@@H]3CCO3)c2c1 [Compound 161a, 2-{[4-({2-[(4-chloro-2-fluorophenyl)methyl]pyrimidin-4-yl}oxy)piperidin-1-yl]methyl}-1-{[(2S)-oxetan-2-yl]methyl}-1H-imidazo[4,5-b]pyridine-6-carboxylic acid] | 0.18
17 | COC(C)Cn1c(CN2CCC(Oc3ccnc(Cc4ccc(Cl)cc4)n3)CC2)nc2ccc(C(=O)O)nc21 (centres unmarked) [Compound 195, 2-((4-((2-(4-chlorobenzyl)pyrimidin-4-yl)oxy)piperidin-1-yl)methyl)-3-(2-methoxypropyl)-3H-imidazo[4,5-b]pyridine-5-carboxylic acid] | 0.6
18 | O=C(O)c1ccc2nc(CN3CCC(Oc4ccnc(Cc5ccc(Cl)cc5Cl)n4)CC3)n(C[C@@H]3CCO3)c2n1 [Compound 164a, 2-{[4-({2-[(2,4-dichlorophenyl)methyl]pyrimidin-4-yl}oxy)piperidin-1-yl]methyl}-3-{[(2S)-oxetan-2-yl]methyl}-3H-imidazo[4,5-b]pyridine-5-carboxylic acid] | 0.11

Same assay, conditions: HEK293/CRE-Luc cell line stably expressing the GLP-1 Receptor; 30 min incubation at 37° C.; read-out: GLP1R cAMP Stimulation DR: pEC50 (converted)

Row | Compound | EC50 [nM]
19 | O=C(O)c1ccc2nc(CN3CCC(Oc4cccc(C(F)(F)c5ccc(Cl)cc5F)n4)CC3)n(C[C@@H]3CCO3)c2n1 [Compound 129a, 2-{[4-({6-[(4-chloro-2-fluorophenyl)difluoromethyl]pyridin-2-yl}oxy)piperidin-1-yl]methyl}-3-{[(2S)-oxetan-2-yl]methyl}-3H-imidazo[4,5-b]pyridine-5-carboxylic acid] | 1
20 | O=C(O)c1ccc2nc(CN3CCC(Oc4ccnc(Cc5ccc(Cl)cc5Cl)n4)CC3)n(C[C@@H]3CCO3)c2n1 [Compound 164a, 2-{[4-({2-[(2,4-dichlorophenyl)methyl]pyrimidin-4-yl}oxy)piperidin-1-yl]methyl}-3-{[(2S)-oxetan-2-yl]methyl}-3H-imidazo[4,5-b]pyridine-5-carboxylic acid] | 0.1
